Measured values taken from ChEMBL document CHEMBL1147454, “6-Arylamino-7-chloro-quinazoline-5,8-diones as novel cytotoxic and DNA topoisomerase inhibitory agents” (Bioorg Med Chem Lett, 2004).
pIC50: −log10 of the molar value.

What was measured:
[1] = target: T1, DNA topoisomerase 1 (Homo sapiens) (UniProt P11387); test: In vitro inhibition of human DNA topoisomerase I activity.; design: concentration or dose not given beside the values; details: concentration not given here
T1 sequence (whole entry): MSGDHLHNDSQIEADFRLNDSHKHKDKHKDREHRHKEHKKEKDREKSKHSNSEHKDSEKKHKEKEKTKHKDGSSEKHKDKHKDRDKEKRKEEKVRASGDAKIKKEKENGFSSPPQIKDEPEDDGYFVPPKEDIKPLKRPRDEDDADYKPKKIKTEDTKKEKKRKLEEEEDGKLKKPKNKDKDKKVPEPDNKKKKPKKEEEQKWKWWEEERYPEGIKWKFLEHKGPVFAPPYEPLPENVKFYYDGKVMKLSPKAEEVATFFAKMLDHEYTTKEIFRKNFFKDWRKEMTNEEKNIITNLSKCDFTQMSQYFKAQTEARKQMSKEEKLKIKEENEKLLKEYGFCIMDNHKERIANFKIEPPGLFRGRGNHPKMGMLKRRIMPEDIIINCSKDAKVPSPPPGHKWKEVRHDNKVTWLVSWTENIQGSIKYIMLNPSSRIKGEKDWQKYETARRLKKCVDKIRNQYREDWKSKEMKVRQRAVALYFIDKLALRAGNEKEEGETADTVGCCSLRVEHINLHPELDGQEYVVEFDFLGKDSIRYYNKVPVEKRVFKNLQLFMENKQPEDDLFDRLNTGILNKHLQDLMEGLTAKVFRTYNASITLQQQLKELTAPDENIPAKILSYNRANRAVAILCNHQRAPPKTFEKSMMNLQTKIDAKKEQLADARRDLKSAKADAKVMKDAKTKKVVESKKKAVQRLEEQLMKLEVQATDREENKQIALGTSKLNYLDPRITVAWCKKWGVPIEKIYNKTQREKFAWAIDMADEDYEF

DNA topoisomerase II [2] = target: T2, DNA topoisomerase II (Homo sapiens, UniProt P11388+Q02880); test: In vitro inhibition of human DNA topoisomerase II activity.; format: protein assay; details: concentration not given here
A549 = test: In vitro cytotoxicity against human A549 (lung cancer) cell line.; format: functional, cell-based
Col2 = test: In vitro cytotoxicity against human Col2 (colon cancer) cell line.; format: functional, cell-based
SNU-638 = test: In vitro cytotoxicity against human SNU-638 (stomach cancer) cell line.; format: functional, cell-based
DNA topoisomerase II [3] = target: T2, DNA topoisomerase II; test: Inhibitory activity against DNA topoisomerase II; format: protein assay
DNA topoisomerase II [4] = target: T2, DNA topoisomerase II; test: Inhibitory activity against topo II-mediated decatenation of DNA; format: protein assay

SMILES | inhibition [1] [%] | inhibition (DNA topoisomerase II [2]) [%] | pIC50 (A549) | pIC50 (Col2) | pIC50 (SNU-638) | IC50 (DNA topoisomerase II [3]) [µM] | IC50 (DNA topoisomerase II [4]) [µM]
Cc1ccc(NC2=C(Cl)C(=O)c3ncncc3C2=O)cc1C | 100 | 20 | 5.35 | 5.43 | 6.00 | – | –
Cc1ccc(NC2=C(Cl)C(=O)c3ncncc3C2=O)cc1 | 12 | 1 | 5.24 | 6.06 | 6.14 | – | –
O=C1C(Nc2ccccc2)=C(Cl)C(=O)c2ncncc21 | 27 | 41 | 5.45 | 5.92 | 6.11 | – | –
CCOc1ccccc1/N=C1/C(=O)c2cncnc2C(O)=C1Cl | 9 | 1 | 5.48 | 6.14 | 6.16 | – | –
Cc1c2ccncc2c(C)c2c1[nH]c1ccccc12 [ELLIPTECINE] | – | – | 5.91 | 5.91 | 5.70 | – | –
Cc1cccc(NC2=C(Cl)C(=O)c3ncncc3C2=O)c1 | 96 | 2 | 5.29 | 5.25 | 6.01 | – | –
O=C1C(Nc2cccc(Cl)c2)=C(Cl)C(=O)c2ncncc21 | 12 | 2 | 5.37 | 5.45 | 6.09 | – | –
COc1ccc(/N=C2/C(=O)c3cncnc3C(O)=C2Cl)c(OC)c1 | 35 | 20 | 5.69 | 5.97 | 6.21 | – | –
Cc1ccc(/N=C2/C(=O)c3cncnc3C(O)=C2Cl)c(Br)c1 | 100 | 100 | 5.39 | 5.52 | 6.05 | 40.5 | –
COc1cc([C@@H]2c3cc4c(cc3[C@@H](O[C@@H]3O[C@@H]5CO[C@@H](C)O[C@H]5[C@H](O)[C@H]3O)[C@H]3COC(=O)[C@H]23)OCO4)cc(OC)c1O | – | 48 | – | – | – | – | –
CCc1ccccc1/N=C1/C(=O)c2cncnc2C(O)=C1Cl | 20 | 82 | 5.33 | 5.36 | 6.15 | – | –
CCc1ccc(NC2=C(Cl)C(=O)c3ncncc3C2=O)cc1 | 88 | 4 | 5.46 | 6.15 | 6.19 | – | –
Cc1ccccc1/N=C1/C(=O)c2cncnc2C(O)=C1Cl | 29 | 6 | 5.44 | 5.42 | 6.05 | – | –
O=C1C(Nc2cccc(Br)c2)=C(Cl)C(=O)c2ncncc21 | 9 | 2 | 5.43 | 5.29 | 5.93 | – | –
O=C1C(Nc2ccc(Br)cc2)=C(Cl)C(=O)c2ncncc21 | 58 | 94 | 5.37 | 5.52 | 6.16 | – | 15.1
COc1cccc2c1C(=O)c1c(O)c3c(c(O)c1C2=O)C[C@@](O)(C(=O)CO)C[C@@H]3O[C@H]1C[C@H](N)[C@H](O)[C@H](C)O1 [DOXORUBICIN] | – | – | 6.52 | 6.28 | 6.16 | – | –
O=C1C(Nc2ccc3c(c2)OCO3)=C(Cl)C(=O)c2ncncc21 | 27 | 2 | 5.78 | 6.06 | 6.26 | – | –
O=C1C(Nc2ccccc2Br)=C(Cl)C(=O)c2ncncc21 | 89 | 99 | 5.35 | 5.47 | 6.00 | – | 17.3
